This experiment is described as follows: Mannequin head curl retention expert evaluation (air dried hair). The note with it: through 20 washes. An excerpt: Mannequin Head Odor and Curl Expert Evaluation
Control perm: Omniperm™ with ammonium thioglycolate, available from Zotos Professional®, including both the reducing and oxidizing steps.
Curl Retention Assessments:
Treatment and expert sensory performed by licensed cosmetologist with 20+ years expertise in perms. All evaluations shown in graphs were done with hair in dry state, after air drying. Photos are available for most time points as well.

From patent publication US12398104B2, “Odorless thiols for permanent waving, straightening and depilatory applications” (The Procter & Gamble Company, priority 2017, dated 2025) come the findings set out here.

On to `C[n+]1cccc(NCCS)c1.[I-]` [3-((2-mercaptoethyl)amino)-1-methylpyridin-1-ium iodide], for which the “Curl retention compared with benchmark control perm” value was “equal curl retention”.
